Test results reported in US20250313575A1, “MACROCYCLES AS LRRK2 INHIBITORS, PHARMACEUTICAL COMPOSITIONS, AND USES THEREOF” (Merck Sharp & Dohme LLC, priority 2022, published 2025).

Molecular target: GST-tagged truncated human mutant G2019S LRRK2 (Homo sapiens (Human), UniProt Q5S007, G2019S)
Assay: LRRK2 G2019S Km ATP LanthaScreen assay
Type: biochemical
Settings: G2019S LRRK2, 134 μM ATP (Km ATP), LRRKtide substrate
Experimental: Unless otherwise noted, all reactions are magnetically allowed to stir, diethyl ether used in the experiments described below is Fisher ACS certified material stabilized with BHT, and “concentrated” and/or “solvent removed under reduced pressure” means evaporating the solvent from a solution or mixture using a rotary evaporator or vacuum pump. Unless otherwise noted, flash chromatography is carried out on a Teledyne Isco (Lincoln, NE), Analogix (Burlington, WI), or Biotage (Stockholm, SWE) automated chromatography system using a commercially available cartridge as the column. Columns may be purchased from Teledyne Isco, Analogix, Biotage, Varian (Palo Alto, CA), or Supelco (Bellefonte, PA) and are usually filled with silica gel as the stationary phase. Reverse phase prep-HPLC conditions, where used, can be found at the end of each experimental section. Aqueous solutions were concentrated on a Genevac (Ipswich, ENG) or by freeze-drying/lyophilization. Unless otherwise noted, all LRRK2 pIC50 data presented in tables refers to the LRRK2 G2019S Km ATP LanthaScreen™ assay (Life Technologies Corp., Carlsbad, CA) that is described in the Biological Assay section.
The LRRK2 kinase activity reported herein as IC50 values was determined with LanthaScreen™ technology from Life Technologies Corporation (Carlsbad, CA) using GST-tagged truncated human mutant G2019S LRRK2 in the presence of the fluorescein-labeled peptide substrate LRRKtide, also from Life Technologies. The data presented for the […] depending on the specific conditions and reagents used. Assays were performed in the presence of 134 μM ATP (Km ATP). Upon completion, the assay was stopped and phosphorylated substrate detected with a terbium (Tb)-labeled anti-pERM antibody (cat. no. PV4898). The compound dose response was prepared by diluting a 10 mM stock of compound to a maximum concentration of 9.99 μM in 100% dimethylsulfoxide followed by custom fold serial dilution in dimethylsulfoxide nine times. Twenty nanoliters of each dilution was spotted via a Labcyte Echo onto a 384-well black-sided plate (Corning 3575) followed by 15 μl of a 1.25 nM enzyme solution in 1× assay buffer (50 mM Tris pH 8.5, 10 mM MgCl2, 0.01% Brij-35, 1 mM EGTA, 2 mM dithiothreitol, 0.05 mM sodium orthovanadate). Following a 15-minute incubation at room temperature, the kinase reaction was started with the addition of 5 μl of 400 nM fluorescein-labeled LRRKtide peptide substrate and 134 μM ATP solution in 1× assay buffer. The reaction was allowed to progress at ambient temperature for 90 minutes. The reaction was then stopped by the addition of 20 μl of TR-FRET Dilution Buffer (Life Technologies, Carlsbad, CA) containing 2 nM Tb-labeled anti-phospho LRRKtide antibody and 10 mM EDTA (Life Technologies, Carlsbad, CA). After an incubation of 1 h at room temperature, the plate was read on an EnVision multimode plate reader (Perkin Elmer, Waltham, MA) with an excitation wavelength of 337 nm (Laser) and a reading emission at both 520 and 495 nm. Compound IC50s were interpolated from nonlinear regression best fits of the log of the final compound concentration, plotted as a function of the 520/495-nm emission ratio using Activity base. Abase uses a 4 parameter (4P) logistic fit based on the Levenberg-Marquardt algorithm.

Sequence of GST-tagged truncated human mutant G2019S LRRK2 (Q5S007 970-2527 G2019S): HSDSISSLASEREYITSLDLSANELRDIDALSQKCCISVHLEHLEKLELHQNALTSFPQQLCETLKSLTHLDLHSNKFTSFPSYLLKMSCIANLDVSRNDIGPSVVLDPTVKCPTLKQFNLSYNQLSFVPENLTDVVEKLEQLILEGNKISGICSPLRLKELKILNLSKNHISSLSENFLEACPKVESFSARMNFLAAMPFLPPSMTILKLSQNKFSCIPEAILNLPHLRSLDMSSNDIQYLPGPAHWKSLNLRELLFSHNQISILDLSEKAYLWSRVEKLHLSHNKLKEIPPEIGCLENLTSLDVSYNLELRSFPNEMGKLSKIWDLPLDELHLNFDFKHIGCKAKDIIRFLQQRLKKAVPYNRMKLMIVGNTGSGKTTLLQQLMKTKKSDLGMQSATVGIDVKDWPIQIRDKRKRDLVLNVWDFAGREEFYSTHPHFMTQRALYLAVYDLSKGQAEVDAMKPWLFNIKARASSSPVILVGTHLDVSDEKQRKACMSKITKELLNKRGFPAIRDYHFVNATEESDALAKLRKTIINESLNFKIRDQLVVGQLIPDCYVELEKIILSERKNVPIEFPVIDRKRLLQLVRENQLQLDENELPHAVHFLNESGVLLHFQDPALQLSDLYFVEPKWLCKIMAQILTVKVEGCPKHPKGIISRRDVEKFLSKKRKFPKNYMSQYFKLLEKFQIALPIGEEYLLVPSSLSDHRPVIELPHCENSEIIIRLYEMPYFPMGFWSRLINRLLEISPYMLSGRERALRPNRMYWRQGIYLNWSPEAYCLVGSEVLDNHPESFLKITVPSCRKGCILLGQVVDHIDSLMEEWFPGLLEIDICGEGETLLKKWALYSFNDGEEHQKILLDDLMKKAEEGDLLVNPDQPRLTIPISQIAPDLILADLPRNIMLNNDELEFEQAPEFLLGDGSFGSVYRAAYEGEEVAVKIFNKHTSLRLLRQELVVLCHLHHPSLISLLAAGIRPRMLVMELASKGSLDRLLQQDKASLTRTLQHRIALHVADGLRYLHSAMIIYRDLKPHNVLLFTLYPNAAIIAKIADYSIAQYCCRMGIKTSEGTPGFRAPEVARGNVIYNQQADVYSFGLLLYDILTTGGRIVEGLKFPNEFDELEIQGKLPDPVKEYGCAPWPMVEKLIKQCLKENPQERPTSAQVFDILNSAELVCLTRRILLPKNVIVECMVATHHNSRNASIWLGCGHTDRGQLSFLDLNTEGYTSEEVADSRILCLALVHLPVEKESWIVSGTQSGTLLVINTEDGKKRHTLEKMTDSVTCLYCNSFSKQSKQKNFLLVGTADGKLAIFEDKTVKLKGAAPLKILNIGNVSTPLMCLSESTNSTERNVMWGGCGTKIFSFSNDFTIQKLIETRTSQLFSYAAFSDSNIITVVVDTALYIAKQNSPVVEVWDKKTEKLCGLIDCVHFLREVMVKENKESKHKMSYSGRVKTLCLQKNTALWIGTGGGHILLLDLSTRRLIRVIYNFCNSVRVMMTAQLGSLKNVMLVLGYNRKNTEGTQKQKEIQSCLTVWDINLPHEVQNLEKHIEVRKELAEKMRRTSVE

Row | Compound | LRRK2 pIC50
1 | Cc1nn(C)c2c1OCC[C@H](C)Nc1nc(ncc1C(F)(F)F)N2 (mixture of isomers) [Ex-2.1, (R)- and (S)-1,3,7-trimethyl-10-(trifluoromethyl)-1,5,6,7,8,14-hexahydro-9,13-(azeno)pyrazolo[4,3-b][1]oxa[4,6,10]triazacyclotridecine] | 6.64
2 | Cc1nn(C)c2c1OCC[C@@H](C)Nc1nc(ncc1C(F)(F)F)N2 (mixture of isomers) [Ex-2.2, (R)- and (S)-1,3,7-trimethyl-10-(trifluoromethyl)-1,5,6,7,8,14-hexahydro-9,13-(azeno)pyrazolo[4,3-b][1]oxa[4,6,10]triazacyclotridecine] | 5.45
3 | Cc1nn(C2CCC2)c2c1OC[C@H]1CN(C3COCC3F)C[C@@H]1Nc1nc(ncc1C(F)(F)F)N2 (mixture of isomers) [Ex-3.1, (10aS,13aR)- and (10aR,13aS)-3-cyclobutyl-12-(4-fluorotetrahydrofuran-3-yl)-1-methyl-8-(trifluoromethyl)-3,4,10a,11,12,13,13a,14-octahydro-10H-5,9-(azeno)pyrazolo[4,3-b]pyrrolo[3,4-k][1]oxa[4,6,10]triazacyclotridecine] | >10.09
4 | Cc1nn(C2CCC2)c2c1OCCC(C)Nc1nc(ncc1C(F)(F)F)N2 (single isomer, unassigned) [Ex-2.6, (R)- or (S)-1-cyclobutyl-3,7-dimethyl-10-(trifluoromethyl)-1,5,6,7,8,14-hexahydro-9,13-(azeno)pyrazolo[4,3-b][1]oxa[4,6,10]triazacyclotridecine] | 9.17
5 | Cc1nn(C2CCC2)c2c1OCCC(C)Nc1nc(ncc1C(F)(F)F)N2 (single isomer, unassigned) [Ex-2.7, (R)- or (S)-1-cyclobutyl-3,7-dimethyl-10-(trifluoromethyl)-1,5,6,7,8,14-hexahydro-9,13-(azeno)pyrazolo[4,3-b][1]oxa[4,6,10]triazacyclotridecine] | 7.21
6 | Cc1nn(C(C)C)c2c1OCCC(C)Nc1nc(ncc1C(F)(F)F)N2 (single isomer, unassigned) [Ex-2.8, (R)- or (S)-1-isopropyl-3,7-dimethyl-10-(trifluoromethyl)-1,5,6,7,8,14-hexahydro-9,13-(azeno)pyrazolo[4,3-b][1]oxa[4,6,10]triazacyclotridecine] | 9.48
7 | Cc1nn(C(C)C)c2c1OCCC(C)Nc1nc(ncc1C(F)(F)F)N2 (single isomer, unassigned) [Ex-2.9, (R)- or (S)-1-isopropyl-3,7-dimethyl-10-(trifluoromethyl)-1,5,6,7,8,14-hexahydro-9,13-(azeno)pyrazolo[4,3-b][1]oxa[4,6,10]triazacyclotridecine] | 6.31
8 | Cc1nn(C)c2c1OCC1(CC1)C(C)Nc1nc(ncc1C(F)(F)F)N2 (single isomer, unassigned) [Ex-2.14, (R)- or (S)-1′,3′,7′-trimethyl-10′-(trifluoromethyl)-1′,7′,8',14′-tetrahydro-5′H-spiro[cyclopropane-1,6′-[9,13](azeno)pyrazolo[4,3-b][1]oxa[4,6,10]triazacyclotridecine]] | 6.73
9 | Cc1nn(C)c2c1OCC1(CC1)C(C)Nc1nc(ncc1C(F)(F)F)N2 (single isomer, unassigned) [Ex-2.15, (R)- or (S)-1′,3′,7′-trimethyl-10′-(trifluoromethyl)-1′,7′,8′,14′-tetrahydro-5′H-spiro[cyclopropane-1,6′-[9,13](azeno)pyrazolo[4,3-b][1]oxa[4,6,10]triazacyclotridecine]] | 7.44
10 | Cc1nn(C)c2c1OCC1(CNc3nc(ncc3C(F)(F)F)N2)CC12CCOCC2 (single isomer, unassigned) [Ex-2.16, (R)- or (S)-1″,3″-dimethyl-10″- (trifluoromethyl)-1″,2,3,5,6,7″,8″,14″. octahydro-5″H-dispiro[pyran-4,1′-cyclopropane-2′,6″- [9,13](azeno)pyrazolo[4,3-b][1]oxa[4,6,10]triazacyclotridecine]] | 7.93
11 | Cc1nn(C)c2c1OCC1(CNc3nc(ncc3C(F)(F)F)N2)CC12CCOCC2 (single isomer, unassigned) [Ex-2.17, (R)- or (S)-1″,3″-dimethyl-10″- (trifluoromethyl)-1″,2,3,5,6,7″,8″,14″- octahydro-5″H-dispiro[pyran-4,1′-cyclopropane-2′,6″- [9,13](azeno)pyrazolo[4,3-b][1]oxa[4,6,10]triazacyclotridecine]] | 8.42
12 | CC1CCOc2c(C3CC3)nn(C)c2Nc2ncc(C(F)(F)F)c(n2)N1 (single isomer, unassigned) [Ex-2.18, (R)- or (S)-3-cyclopropyl-1,7-dimethyl-10-(trifluoromethyl)-1,5,6,7,8,14-hexahydro-9,13-(azeno)pyrazolo[4,3-b][1]oxa[4,6,10]triazacyclotridecine] | 6.65
13 | CC1CCOc2c(C3CC3)nn(C)c2Nc2ncc(C(F)(F)F)c(n2)N1 (single isomer, unassigned) [Ex-2.19, (R)- or (S)-3-cyclopropyl-1,7-dimethyl-10-(trifluoromethyl)-1,5,6,7,8,14-hexahydro-9,13-(azeno)pyrazolo[4,3-b][1]oxa[4,6,10]triazacyclotridecine] | 8.78
14 | Cc1nn(C2CCC2)c2c1OC[C@H]1CC[C@H]1Nc1nc(ncc1C(F)(F)F)N2 (single isomer, unassigned) [Ex-2.22, (10aR,12aS)- or (10aS,12aR)-3-cyclobutyl-1-methyl-8-(trifluoromethyl)-3,4,10,10a,11,12,12a,13-octahydro-5,9-(azeno)cyclobuta[k]pyrazolo[4,3-b][1]oxa[4,6,10]triazacyclotridecine] | 5.76
15 | Cc1nn(C2CCC2)c2c1OC[C@H]1CC[C@H]1Nc1nc(ncc1C(F)(F)F)N2 (single isomer, unassigned) [Ex-2.23, (10aR,12aS)- or (10aS,12aR)-3-cyclobutyl-1-methyl-8-(trifluoromethyl)-3,4,10,10a,11,12,12a,13-octahydro-5,9-(azeno)cyclobuta[k]pyrazolo[4,3-b][1]oxa[4,6,10]triazacyclotridecine] | >10.09
16 | Cc1nn(C2CCC2)c2c1OC[C@H]1COC[C@@H]1Nc1nc(ncc1C(F)(F)F)N2 (single isomer, unassigned) [Ex-2.26, (10aS,13aS)- or (10aR,13aR)-3-cyclobutyl-1-methyl-8-(trifluoromethyl)-3,4,10a,11,13a, 14-hexahydro-10H,13H-5,9-(azeno)furo[3,4-k]pyrazolo[4,3-b][1]oxa[4,6,10]triazacyclotridecine] | 6.77

Same assay, conditions: G2019S LRRK2, 134 μM ATP (Km ATP), LRRKtide substrate; read-out: LRRK2 pIC50 (converted)

Row | Compound | IC50
17 | Cc1nn(C)c2c1OC[C@H]1COC[C@H]1Nc1nc(ncc1C(F)(F)F)N2 (single isomer, unassigned) [Ex-2.25, (10aS,13aR)- or (10aR,13aS)-1,3-dimethyl-8-(trifluoromethyl)-3,4,10a,11,13a,14-hexahydro-10H,13H-5,9-(azeno)furo[3,4-k]pyrazolo[4,3-b][1]oxa[4,6,10]triazacyclotridecine] | 28.2 nM
